# Data reported in publication PMC12040169 (PLOS Biology, 2025).
# Assay: in vitro
# Conditions: human, hela cells, % viability
Structure (SMILES),"viability at 28.5 h, 10 µM [%]","viability at 28.5 h, 10 µM (bulk resorufin, single well) [%]"
O=C(N/N=C/c1ccncc1)C1CC1C(=O)N/N=C/c1ccncc1 (centres unmarked) [CBK261115],90.2,
Cc1ccnc(NCn2nnc3ccccc32)c1 [CBK261116],110,
O=C(NC(C(=O)N/N=C/c1ccccc1O)c1n[nH]c(=O)c2ccccc12)c1ccccc1 (centres unmarked) [CBK261117],113,
O=[N+]([O-])c1ccc(-n2cnc3ccccc32)c([N+](=O)[O-])c1 [CBK261120],,91.9
O/N=C1/c2ccccc2/C(=N/O)C1c1ccccc1 [CBK261122],75.2,
O=C1NC(=S)NC(=O)C1=CNCCc1c[nH]c2ccccc12 [CBK261124],,110
Oc1cccc2ccc(/C=N/N=C/c3ccc4cccc(O)c4n3)nc12 [CBK261127],89.3,
O=S(=O)(NCCc1ccccc1)c1cccc2nsnc12 [CBK261128],103,
CN(C)c1nc2ccc(OCCN3CCOCC3)cc2s1 [CBK261135],82.5,
O=C(O)CNS(=O)(=O)c1cccc2nsnc12 [CBK261136],96.8,
N#CCCN(CCN1CCCC1)S(=O)(=O)c1cccc2nsnc12 [CBK261141],99.3,
O=[N+]([O-])c1cccc(C(Nc2ccccn2)n2cnc3ccccc32)c1 (centres unmarked) [CBK261145],87.6,
O=C(O)CCCNC(=O)c1ccncc1 [CBK261146],104,
O=S(=O)(c1ccc2nc(-c3ccccc3)c(-c3ccc(O)cc3)nc2c1)c1ccc2nc(-c3ccccc3)c(-c3ccc(O)cc3)nc2c1 [CBK261148],108,
O=C(O)c1ccc(C2(c3ccc(C(=O)O)cc3)OC(=O)c3ccccc32)cc1 [CBK261150],98.2,
Cc1ccc(S(=O)(=O)Nc2ccc(C3(c4ccc(NS(=O)(=O)c5ccc(C)cc5)cc4)c4ccccc4C(=O)c4ccccc43)cc2)cc1 [CBK261155],111,
Oc1ccccc1/C=N/c1ccc(Cc2ccc(/N=C/c3ccccc3O)c(O)c2)cc1O [CBK261156],93.4,
C(#Cc1cccc(-c2nc3ccccc3nc2-c2cccc(C#Cc3ccc(Sc4ccccc4)cc3)c2)c1)c1ccc(Sc2ccccc2)cc1 [CBK261158],93.2,
O=C(Nc1ccc2nc(-c3ccc(-c4nc5ccc(NC(=O)c6cccc7ccccc67)cc5[nH]4)cc3)[nH]c2c1)c1cccc2ccccc12 [CBK261160],120,
O=C(Nc1ccc(-c2nc3ccc(-c4nc5ccc(NC(=O)c6cccc7ccccc67)cc5[nH]4)cc3[nH]2)cc1)c1cccc2ccccc12 [CBK261161],94.4,
O=C(Nc1cc([N+](=O)[O-])ccc1O)c1cccc(C(=O)Nc2cc([N+](=O)[O-])ccc2O)c1 [CBK261168],,102
CC(C)(C)c1ccc(OCC(O)CNS(=O)(=O)O)cc1 (centres unmarked) [CBK261169N],102,
Cc1ccc(S(=O)(=O)NCC23C=CC(O2)C2C(=O)N(Cc4ccccc4)C(=O)C23)cc1 (centres unmarked) [CBK261170],107,
CCOC(=O)C(C(=O)OCC)(N1CCOCC1)N1CCOCC1 [CBK261176],112,
O=C(O)c1c(Cl)c(C(=O)O)c(C(=O)O)c(Cl)c1C(=O)O [CBK261177],96.8,
O=C(O)c1ccc2c(c1)C(=O)N(c1ccc(/C=C/C(=O)c3ccccc3)cc1)C2=O [CBK261181],79.6,

Structure (SMILES),"viability at 28.5 h, 10 µM [%]","viability at 28.5 h, 10 µM (bulk resorufin, single well) [%]"
O=C(c1ccc2c(c1)C(=O)N(N1C(=O)c3ccccc3C1=O)C2=O)c1ccc2c(c1)C(=O)N(N1C(=O)c3ccccc3C1=O)C2=O [CBK261182],96.4,
O=C(O)c1ccc(C(=O)c2c3c(=O)n(-c4ccccc4C(=O)O)c(=O)c3cc3c(=O)n(-c4ccccc4C(=O)O)c(=O)c23)cc1 [CBK261183],91.7,
O=C(Nc1c[nH]c(=O)[nH]c1=O)c1ccc(Oc2ccc(C(=O)Nc3c[nH]c(=O)[nH]c3=O)cc2)cc1 [CBK261184],108,
O=C(O)c1ccccc1N1C(=O)c2ccc(Oc3ccc(Oc4ccc5c(c4)C(=O)N(c4ccccc4C(=O)O)C5=O)cc3)cc2C1=O [CBK261186],88.6,
O=C(O)c1ccc2c(c1)C(=O)N(c1ccc(-c3ccc(N4C(=O)c5ccc(C(=O)O)cc5C4=O)cc3)cc1)C2=O [CBK261187],99.3,
O=C(O)c1cc(NC(=O)C(c2ccccc2)c2ccccc2)cc(C(=O)O)c1 [CBK261191],93.2,
O=C(Nc1cccc(O)c1)c1ccc2c(c1)C(=O)N(c1cccc(N3C(=O)c4ccc(C(=O)Nc5cccc(O)c5)cc4C3=O)n1)C2=O [CBK261199],89.8,
O=C1c2ccc(Oc3ccc4c(c3)C(=O)N(c3ccccn3)C4=O)cc2C(=O)N1c1ccccn1 [CBK261202],99.3,
Oc1ccc(/N=C/c2ccc(/C=N/c3ccc(O)cc3)cc2)cc1 [CBK261203],98.5,
CC(Oc1cccc(Cl)c1)C(=O)NN (centres unmarked) [CBK261207],90.1,
NNC(=O)COc1ccc2ccccc2c1 [CBK261208],104,
CC(Oc1cccc2ccccc12)C(=O)NN (centres unmarked) [CBK261209],112,
O=C(O)/C(=N\O)c1ccc(CCc2ccccc2)s1 [CBK261213],90.8,
NNC(=O)/C(=C\c1ccccc1)CCO [CBK261215],117,
O=C(O)/C=C\C(=O)Nc1ccc(Oc2ccccc2)cc1 [CBK261216],102,
Clc1ccccc1C1N(Cc2ccccc2)CCN1Cc1ccccc1 [CBK261217],93.8,
O=C(CCc1ccccc1)N/N=C/c1cc2c(cc1[N+](=O)[O-])OCO2 [CBK261221],111,
Clc1cccc(C2N(Cc3ccccc3)CCN2Cc2ccccc2)c1 [CBK261222],93.1,
COc1cccc(/C=N/c2cc(S(=O)(=O)c3ccc(O)c(/N=C/c4cccc(OC)c4O)c3)ccc2O)c1O [CBK261225],92.4,
O=[N+]([O-])c1ccc(/C=N/c2ccc(Cc3ccc(/N=C/c4ccc([N+](=O)[O-])s4)cc3)cc2)s1 [CBK261228],98.3,
Oc1cccc(/C=N/c2ccc(Cc3ccc(/N=C/c4cccc(O)c4)cc3)cc2)c1 [CBK261230],103,
COc1ccc(Br)cc1/C=N/Nc1nc(NCc2ccccc2)nc(N2CCOCC2)n1 [CBK261232],92.9,
Oc1ccc2ccccc2c1/C=N/Nc1nc(NCc2ccccc2)nc(N2CCOCC2)n1 [CBK261233],93.8,
O=C(Oc1ccc(/C=N/c2ccc(-c3nc4ccccc4s3)c(O)c2)cc1)c1ccc(Cl)cc1 [CBK261234],100,
O=[N+]([O-])c1cc(/C=N/Nc2nc(N3CCOCC3)nc(N3CCOCC3)n2)c(O)c([N+](=O)[O-])c1 [CBK261237],105,
COc1cc(/C=N/c2ccc3oc(-c4ccc(C(C)(C)C)cc4)nc3c2)ccc1OC(=O)c1ccc(Cl)cc1Cl [CBK261238],104,

Structure (SMILES),"viability at 28.5 h, 10 µM [%]","viability at 28.5 h, 10 µM (bulk resorufin, single well) [%]"
COc1cc(/C=N/c2ccc3oc(-c4cccc(I)c4)nc3c2)ccc1OC(=O)c1ccc(Cl)cc1Cl [CBK261239],95.3,
O=C(Oc1ccc(/C=N/c2ccc(O)c(-c3nc4ccccc4s3)c2)cc1)c1ccccc1Cl [CBK261241],89.9,
Oc1ccc(/N=C/C=C/c2ccc(Cl)cc2Cl)cc1-c1nc2ccccc2s1 [CBK261242],107,
COc1cc(/C=N/c2ccc(O)c(-c3nc4ccccc4s3)c2)ccc1OC(=O)c1ccc(Cl)cc1Cl [CBK261243],101,
O=[N+]([O-])c1cccc(/C=C/C=N/c2ccc3c(c2)S(=O)(=O)c2cc(/N=C/C=C/c4cccc([N+](=O)[O-])c4)ccc2-3)c1 [CBK261244],97.6,
CC(O)(CC(=O)O)C12CC3CC(CC(C3)C1)C2 (centres unmarked) [CBK261245],114,
COc1ccc(/C=C/C(=O)O)cc1S(=O)(=O)Nc1ccc(C(=O)O)cc1 [CBK261246],108,
O=C(NC(C(=O)N/N=C/c1cccs1)c1n[nH]c(=O)c2ccccc12)c1ccccc1 (centres unmarked) [CBK261250],98,
C/C(=N\NC(=O)c1ccccc1O)c1ccc(NC(=O)c2ccc(C)cc2)cc1 [CBK261251],84.7,
O=S(=O)(c1ccc(-c2ccc(S(=O)(=O)N3CCCCC3)cc2)cc1)N1CCCCC1 [CBK261257],92.2,
O=C(Nc1ccccc1C(=O)O)c1cccc(S(=O)(=O)NCc2ccccc2)c1 [CBK261258],98.1,
O=S(=O)(c1cccc(S(=O)(=O)N2CCOCC2)c1)c1ccc(Cl)c(S(=O)(=O)N2CCOCC2)c1 [CBK261260],104,
O=C(O)c1cccc(NC(=O)c2cccc(S(=O)(=O)Nc3ccc(Cl)cc3)c2)c1 [CBK261261],92.6,
CC1=C(C)C(=NNC(N)=S)C(C)=C(C)C1=NNC(N)=S [CBK261262],91.9,
Cc1ccc(-n2nc(-c3ccc(NC(=O)c4ccccc4)cc3)cc2NC(=O)c2ccccc2)cc1 [CBK261265],92.3,
O=C(O)c1ccc(C(=O)O)c2c(-c3ccc(C(=O)O)c4c(C(=O)O)ccc(C(=O)O)c34)ccc(C(=O)O)c12 [CBK261267],98.4,
CCCCc1ccc(C(=O)CSc2nc(N)c(C#N)c(-c3ccc(O)cc3)c2C#N)cc1 [CBK261268],93.4,
N#Cc1c(N)nc(SCC(=O)c2cc3ccccc3oc2=O)c(C#N)c1-c1ccc(O)cc1 [CBK261269],103,
CC(C)(C)c1cc(CCC(c2cc(C(C)(C)C)c(O)c(C(C)(C)C)c2)c2cc(C(C)(C)C)c(O)c(C(C)(C)C)c2)cc(C(C)(C)C)c1O [CBK261271],92.9,
CC(=O)Nc1ccc(-c2cc(-c3ccc(NC(C)=O)cc3)nc(-c3ccc([N+](=O)[O-])cc3)n2)cc1 [CBK261273],91.5,
O=C(O)CCC(=O)c1c[nH]c2ccccc12 [CBK261275],110,
O=C(N/C(=C/c1ccccc1)C(=O)N1CCCCC1)c1ccccc1 [CBK261280],94.7,
c1ccc(CN2CCN(Cc3ccccc3)C2c2ccc[nH]2)cc1 [CBK261283],82.9,
COC(=O)Nc1ccc2c(c1)N(C(=O)CCN1CCOCC1)c1ccccc1CC2 [CBK261284C],95.9,
CCOC(=O)Nc1ccc2c(c1)N(C(=O)CN1CCOCC1)c1ccccc1CC2 [CBK261286C],101,
